Entries after “also recorded” stand apart in the source; their conditions may differ.

The results in this text go back to paper PMC11862924, “Phenylpyrazoles as Inhibitors of the m^6A RNA-Binding Protein YTHDF2” (JACS Au, 2025).

The target in data set [1] is T1, YTHDF1 (residues 375-552) (Homo sapiens, UniProt Q9BYJ9).
T1 construct: Plasmids of the YTH domain of YTHDF1 (residues 375–552); made in house; host or cells: Escherichia coli BL21(DE3); plasmid from the Zhou lab (Boston College)
T1 sequence (Q9BYJ9 375-552): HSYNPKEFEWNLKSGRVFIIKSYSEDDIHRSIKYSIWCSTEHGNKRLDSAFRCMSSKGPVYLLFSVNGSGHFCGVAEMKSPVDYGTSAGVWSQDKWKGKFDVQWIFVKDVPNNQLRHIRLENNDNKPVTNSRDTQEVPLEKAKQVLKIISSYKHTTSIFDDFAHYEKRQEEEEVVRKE
As to the kind of experiment: FP assay with YTH domain of YTHDF1. In kind it is binding. As to conditions: 0.5 µM YTHDF1, m6A RNA probe 4 nM. Here is the method:
(§1) The FP assay was performed in 384-well black plates (Corning no. 4514) with a total reaction volume of 15 μL. The final concentrations of protein (YTHDF2) and RNA were […], respectively, in a buffer containing 20 mM HEPES/KOH pH 7.5, 50 mM NaCl, 0.005% Tween 20, and 1 mM GSH (DTT). Compounds were incubated with protein, added FAM-m^6A RNA probe ([…](m6)ACUGUG) (purchased from IDT), and incubated at 4 °C for 30 min. The fluorescence polarization was measured using a plate reader (TECAN Spark) under an excitation wavelength of 485 nm and an emission wavelength of 535 nm with a bandwidth of 20 nm. […] The data were determined using GraphPad Prism 9.
Figure S8. The FP assay of YTHDF1 binding to the m6A RNA substrate. (A)The purification of YTHDF1 (residues 375-552), molecular weight: 21.9 kDa. (B) The anisotropy values using different concentrations of YTHDF1 with the m6A RNA probe (4 nM), which was used to decide the appropriate […] concentration for the FP (0.5 µM of YTHDF1, Z-factor: 0.65). (C) The […]
(§2) (1 picture or pasted object on this page, not shown here)

Data set [2] has as its target T2, YTHDC2 (residues 1285-1424) (Homo sapiens, UniProt Q9H6S0).
T2 construct: YTHDC2 (residues 1285–1424); made in house; host or cells: Escherichia coli BL21(DE3); plasmid from the Zhou lab (Boston College)
T2 sequence (Q9H6S0 1285-1424): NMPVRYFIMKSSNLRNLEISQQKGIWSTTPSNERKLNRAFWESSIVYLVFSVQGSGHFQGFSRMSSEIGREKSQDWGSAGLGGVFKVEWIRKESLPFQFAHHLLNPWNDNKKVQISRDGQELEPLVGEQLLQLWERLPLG
The data set can be described thus: FP assay with YTH domain of YTHDC2. In kind it is binding. Particulars: 5.0 µM YTHDC2. How it is done: as §1
Figure S11. The FP assay of YTHDC2 binding to the m6A RNA substrate. (A)The purification of YTHDC2 (residues 1285-1424), molecular weight: 17.4 kDa. (B) The anisotropy values using different concentrations of YTHDC2 with the m6A RNA probe (4 nM), which was used to decide the appropriate YTHDC2 concentration for the FP (5.0 µM of YTHDC2, Z-factor: 0.83). (C) The […]
as §2

A further data set addresses T3, YTHDF1 (Homo sapiens, UniProt Q9BYJ9).
T3 construct: Plasmids of the YTH domain of YTHDF1 (residues 375–552); made in house; host or cells: Escherichia coli BL21(DE3); plasmid from the Zhou lab (Boston College)
T3 sequence (Q9BYJ9 375-552): T1 sequence (Q9BYJ9 375-552)
The data set can be described thus: EMSA with YTHDF1. In kind it is binding. As to conditions: m6A RNA 20 nM. Here is the method: (§3) Compounds with different concentrations (3.1–100 μM) were incubated with 250 nM YTH-domain and 20 nM FAM-17mer-RNA in a buffer containing 20 mM HEPES, pH 8.2, 50 mM NaCl, 0.05% Triton X-100, and 5% v/v glycerol for 20 min at 4 °C. The samples were subjected to 12% native polyacrylamide gel and run at 120 V for 90 min at 4 °C using 0.5× TBE buffer. Gel imaging was performed in ChemiDoc MP (Bio-Rad), and Cy2/Alexa488 fluorescence was detected with a 1-min exposure time. Quantification of the gel image was performed by ImageJ.
Figure S12. The EMSA of YTHDF1 binding to the m6A RNA substrate. (A) The YTHDF1–RNA
complex formation in EMSA using m6A RNA (20 nM) and different concentrations of YTHDF1 . (B)
consistent results with that of FP.
as §2

Data set [3] in a line: MTT cytotoxicity assay, HCT116. Format: cell-based. Particulars: human, HCT116 cells, triplicates, read-out: Cytotoxicity against cancer cells (IC50), HCT116. Here is the method:
(§4) JAR, K562, and HCT116 cells were seeded in 96-well plates (3500 cells/well) and incubated for 8 h. The medium with different concentrations of compounds (100, 33.3, 11.1, 3.7, 1.2, and 0.4 μM) was added to the 96-well plates. Data were normalized to the medium with 0.1% DMSO. After incubation for 72 h, MTT solution (5 mg/mL, 20 μL) was added per well in a dark environment and incubated for 4 h. After the medium was discarded, DMSO (150 μL) was added per well, and the absorbance was measured at 492 nm by a plate reader (TECAN Spark).

Data set [4] can be described thus: MTT cytotoxicity assay, JAR. Format: cell-based. Particulars: human, JAR cells, triplicates, read-out: Cytotoxicity against cancer cells (IC50), JAR. How it is done:
as §4

The next data set has as its target T4, YTHDC1 (Homo sapiens, UniProt Q96MU7).
T4 construct: YTHDC1 (residues 345–509); made in house; host or cells: Escherichia coli BL21(DE3); plasmid from the Zhou lab (Boston College)
As to the kind of experiment: EMSA with YTHDC1. Format: binding. Particulars: m6A RNA 20 nM. How it is done:
as §3
Figure S14. The EMSA of YTHDC1 binding to the m6A RNA substrate. (A) The YTHDC1–RNA
complex formation in EMSA using m6A RNA (20 nM) and different concentrations of YTHDC1.
as §2

In the next data set the target is T5, YTHDC2 (Homo sapiens, UniProt Q9H6S0).
T5 construct: YTHDC2 (residues 1285–1424); made in house; host or cells: Escherichia coli BL21(DE3); plasmid from the Zhou lab (Boston College)
T5 sequence (Q9H6S0 1285-1424): T2 sequence (Q9H6S0 1285-1424)
The data set can be described thus: EMSA with YTHDC2. As to conditions: m6A RNA 20 nM, 10 µM YTHDC2. In kind it is binding. Here is the method: as §3
Figure S15. EMSA using m6A RNA and YTHDC2 protein of varied concentrations as indicated.
(A) 20 nM of m6A RNA was used and 10 µM of YTHDC2 was chosen for EMSA. (B) CK-61, CK-
as §2

Data set [5] deals with T6, YTHDC1 (residues 345-509) (Homo sapiens, UniProt Q96MU7).
T6 construct: YTHDC1 (residues 345–509); made in house; host or cells: Escherichia coli BL21(DE3); plasmid from the Zhou lab (Boston College)
As to the kind of experiment: FP assay with YTH domain of YTHDC1. Format: binding. Particulars: 2.0 µM YTHDC1. Here is the method: as §1
Figure S10. The FP assay of YTHDC1 binding to the m6A RNA substrate. (A) The purification of YTHDC1 (residues 345-509), molecular weight: 19.9 kDa. (B) The anisotropy values using different concentrations of YTHDC1 with the m6A RNA probe (4 nM), which was used to decide the appropriate […] concentration for the FP (2.0 µM of YTHDC1, Z-factor: 0.54). (C) CK- […]
as §2

The nature of data set [6]: MTT cytotoxicity assay, K562. In kind it is cell-based. Particulars: human, K562 cells, triplicates, read-out: Cytotoxicity against cancer cells (IC50), K562. How it is done:
as §4

On to `O=C(O)c1ccc(-n2cc(C(=O)c3cc(Cl)cc(Cl)c3O)cn2)cc1` [CK-61], for which the IC50 in [1] (read-out: IC50 against YTHDF1 in FP) came to 67.5 µM. Further, the inhibition at 100 µM in data set [2] (read-out: inhibition of YTHDC2 at 100 μM in FP, 100 μM compound) came out at 36.1%. Further, at YTHDF1, the “inhibition of m6A RNA binding to YTHDF1 in EMSA (in words)” value (from here on “inhibition of m6A RNA binding to YTHDF1”) is on record as “minimal inhibition”. Moreover, the IC50 at 72 h in data set [3], in data set [4] and in [6] was over 50 µM each time. Also, the “inhibition of m6A RNA binding to YTHDC1 in EMSA (in words)” value (from here on “inhibition of m6A RNA binding to YTHDC1”) on YTHDC1 is reported as “did not show detectable inhibitory activity; also recorded: no activity”. The “inhibition of m6A RNA binding to YTHDC2 in EMSA (in words)” value (from here on “inhibition of m6A RNA binding to YTHDC2”) at YTHDC2 was “did not show detectable inhibitory activity; also recorded: no activity”. The “inhibitory activity against YTHDC1 in FP (in words)” value (from here on “inhibitory activity against YTHDC1”) in data set [5] is listed as “did not show detectable inhibitory activity”.
For `O=C(O)c1ccc(-n2cc(C(=O)c3c(O)ccc4ccccc34)cn2)cc1` [CK-75], the “inhibitory activity against YTHDF1 in FP (in words)” value in data set [1] was “inactive”. The “inhibitory activity against YTHDC2 in FP (in words)” value in data set [2] was “inactive”. For the same compound, the “inhibition of m6A RNA binding to YTHDF1” value on YTHDF1 is reported as “did not show detectable inhibition”. Further, the IC50 at 72 h in data set [3] was 33.3 µM; in data set [4], 47.5 µM; in [6], 29.7 µM. At YTHDC1, the “inhibition of m6A RNA binding to YTHDC1” value is “did not show detectable inhibitory activity; also recorded: did not show detectable inhibition”. The “inhibition of m6A RNA binding to YTHDC2” value at YTHDC2 is recorded as “did not show detectable inhibitory activity; also recorded: did not show detectable inhibition”. For the same compound, in data set [5], the “inhibitory activity against YTHDC1” value was “did not show detectable inhibitory activity; also recorded: inactive”.
For `Cc1cc(O)c(C(=O)c2cnn(-c3ccc(C(=O)O)cc3)c2)cc1Cl` [CK-79], the “inhibitory activity against YTHDF1 in FP (in words)” value in data set [1] is “inactive”. Also, in [2], the “inhibitory activity against YTHDC2 in FP (in words)” value is “inactive”. At YTHDF1, the “inhibition of m6A RNA binding to YTHDF1” value is “did not show detectable inhibition”. Moreover, the IC50 at 72 h in data set [3] was 33.6 ± 14.7 µM; in data set [4], 31.6 µM; in [6] it was 29.4 ± 16.7 µM. Moreover, the “inhibition of m6A RNA binding to YTHDC1” value on YTHDC1 was “did not show detectable inhibitory activity; also recorded: did not show detectable inhibition”. At YTHDC2, the “inhibition of m6A RNA binding to YTHDC2” value was “did not show detectable inhibitory activity; also recorded: did not show detectable inhibition”. The “inhibitory activity against YTHDC1” value in data set [5] is “did not show detectable inhibitory activity; also recorded: inactive”.
